Source: ChEMBL document CHEMBL1201862, “PubChem BioAssay data set” (2004)
Active and inactive are the calls of the source.

What was measured:
cells = assay type: functional, cell-based
[1] = molecular target: T1, Nuclear receptor subfamily 0 group B member 1 (Homo sapiens, UniProt P51843); assay type: functional, cell-based;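 also: HEK293T cells transfected with SF-1 and DAX-1 plus StAR promoter luciferase reporter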
T1 sequence (P51843 whole entry): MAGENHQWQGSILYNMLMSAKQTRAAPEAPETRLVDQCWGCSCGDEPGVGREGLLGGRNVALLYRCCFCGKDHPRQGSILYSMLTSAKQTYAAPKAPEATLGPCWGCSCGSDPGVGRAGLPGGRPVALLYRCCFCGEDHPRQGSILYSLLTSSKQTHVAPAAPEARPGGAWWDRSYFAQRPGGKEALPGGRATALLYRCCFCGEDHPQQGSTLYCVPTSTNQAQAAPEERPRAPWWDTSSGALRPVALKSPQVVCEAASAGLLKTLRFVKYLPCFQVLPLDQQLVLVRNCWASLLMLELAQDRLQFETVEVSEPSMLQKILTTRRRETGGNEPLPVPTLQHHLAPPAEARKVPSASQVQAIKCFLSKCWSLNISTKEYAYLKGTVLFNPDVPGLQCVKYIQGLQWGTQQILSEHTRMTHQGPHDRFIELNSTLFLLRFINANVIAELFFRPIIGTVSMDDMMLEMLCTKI

[2] = molecular target: T2, DNA repair protein RAD52 homolog (Homo sapiens, UniProt P43351); assay type: functional, biochemical
T2 sequence (P43351 whole entry): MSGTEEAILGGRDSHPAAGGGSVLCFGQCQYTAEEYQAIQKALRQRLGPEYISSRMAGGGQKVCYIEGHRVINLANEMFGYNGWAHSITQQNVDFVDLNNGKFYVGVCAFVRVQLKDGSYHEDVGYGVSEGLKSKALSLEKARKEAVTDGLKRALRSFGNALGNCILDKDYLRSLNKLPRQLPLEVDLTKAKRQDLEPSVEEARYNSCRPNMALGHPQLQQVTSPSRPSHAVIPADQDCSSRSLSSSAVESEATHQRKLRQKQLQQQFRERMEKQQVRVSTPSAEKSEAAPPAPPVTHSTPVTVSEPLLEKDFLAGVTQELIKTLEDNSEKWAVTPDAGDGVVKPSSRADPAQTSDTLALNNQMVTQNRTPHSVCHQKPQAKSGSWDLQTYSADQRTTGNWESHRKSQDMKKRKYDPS

[3] = inhibitors of HIV Env-driven cell fusion, dose response, cherry-pick (AID 652057); assay type: functional, cell-based
[4] = ZM109 Env clade C HIV-1 fusion inhibitors, dose response, HeLa effector, CEM target cells, luciferase, cherry-pick (AID 652058); assay type: functional, cell-based
[5] = inhibitors of clade B AD8 Env fusion, dose response, cell-based, cherry-pick (AID 652062); assay type: functional;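 also: luciferase signal from cell-cell fusion driven by HIV-1 clade B AD8 Env; potency is for inhibitors of fusion seen as a drop in luminescence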
Cytochrome P450 2C19 = Cytochrome P450 2C19 (Homo sapiens, UniProt P33261); assay: Cytochrome panel assay with activity outcomes. Panel member name: p450-cyp2c19 Compounds with AC50 equal or less than 10 uM are considered active; assay type: functional; details: read-out: AC50
Sequence of Cytochrome P450 2C19 (P33261 whole entry): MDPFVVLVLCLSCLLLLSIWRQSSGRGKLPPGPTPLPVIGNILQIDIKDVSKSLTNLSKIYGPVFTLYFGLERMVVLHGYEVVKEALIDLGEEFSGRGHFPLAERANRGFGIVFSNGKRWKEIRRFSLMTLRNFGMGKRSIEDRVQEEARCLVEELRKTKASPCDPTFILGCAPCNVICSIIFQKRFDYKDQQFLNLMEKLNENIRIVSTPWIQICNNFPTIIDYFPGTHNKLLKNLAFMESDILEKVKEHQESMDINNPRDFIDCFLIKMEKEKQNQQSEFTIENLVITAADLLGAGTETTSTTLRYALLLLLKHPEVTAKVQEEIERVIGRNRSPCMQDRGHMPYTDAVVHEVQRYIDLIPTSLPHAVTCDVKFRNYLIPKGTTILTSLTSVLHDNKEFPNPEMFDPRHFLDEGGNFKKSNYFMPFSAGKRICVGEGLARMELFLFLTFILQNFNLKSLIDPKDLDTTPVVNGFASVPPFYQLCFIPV

Cytochrome P450 1A2 = molecular target: T3, Cytochrome P450 1A2 (Homo sapiens, UniProt P05177);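 also: PubChem cytochrome P450 panel assay, CYP1A2 panel member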
T3 sequence (P05177 whole entry): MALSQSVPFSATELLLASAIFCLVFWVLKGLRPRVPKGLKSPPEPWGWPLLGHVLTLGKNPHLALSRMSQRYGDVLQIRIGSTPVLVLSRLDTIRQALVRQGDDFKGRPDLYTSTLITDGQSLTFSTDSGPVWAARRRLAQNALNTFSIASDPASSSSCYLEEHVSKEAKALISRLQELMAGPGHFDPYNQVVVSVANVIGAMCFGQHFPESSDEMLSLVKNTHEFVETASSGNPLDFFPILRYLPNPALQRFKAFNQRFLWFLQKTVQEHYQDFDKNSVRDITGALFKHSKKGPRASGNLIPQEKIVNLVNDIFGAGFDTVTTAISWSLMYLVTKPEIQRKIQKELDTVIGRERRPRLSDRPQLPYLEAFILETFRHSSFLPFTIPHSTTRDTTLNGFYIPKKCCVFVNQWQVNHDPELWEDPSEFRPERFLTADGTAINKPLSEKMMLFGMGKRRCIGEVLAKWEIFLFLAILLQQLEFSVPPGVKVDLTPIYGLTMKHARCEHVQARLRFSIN

Cytochrome P450 2C9 = Cytochrome P450 2C9 (Homo sapiens, UniProt P11712)
Sequence of Cytochrome P450 2C9 (P11712 whole entry): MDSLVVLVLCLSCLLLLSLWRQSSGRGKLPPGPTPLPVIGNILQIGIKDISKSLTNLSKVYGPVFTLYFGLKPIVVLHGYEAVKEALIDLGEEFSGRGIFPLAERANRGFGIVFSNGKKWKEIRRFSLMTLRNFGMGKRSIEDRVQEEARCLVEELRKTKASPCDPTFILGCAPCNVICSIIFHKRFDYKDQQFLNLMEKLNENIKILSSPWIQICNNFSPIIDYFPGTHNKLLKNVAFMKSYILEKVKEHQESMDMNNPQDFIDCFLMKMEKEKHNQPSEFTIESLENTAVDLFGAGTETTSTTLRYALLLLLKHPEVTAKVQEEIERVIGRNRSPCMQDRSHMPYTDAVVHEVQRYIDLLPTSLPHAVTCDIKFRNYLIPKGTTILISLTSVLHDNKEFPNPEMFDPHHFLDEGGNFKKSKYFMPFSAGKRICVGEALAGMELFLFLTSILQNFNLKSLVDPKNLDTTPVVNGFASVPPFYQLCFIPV

HEK293 = assay: inhibitors of LMP1-driven NF-kB reporter, dose response, cell-based, HEK293, luciferase, cherry-pick (AID 588343); assay type: functional; details: Homo sapiens
[6] = intracellular Trypanosoma cruzi inhibitors in host cells – cell-based, plate reader, cherry-pick samples, set 3, dose response (AID 651818); assay type: functional;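 also: compounds incubated with infected cells for about four days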
Cytochrome P450 2D6 = Cytochrome P450 2D6 (Homo sapiens, UniProt P10635);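 also: CYP2D6 member of a cytochrome P450 panel assay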
Sequence of Cytochrome P450 2D6 (P10635 whole entry): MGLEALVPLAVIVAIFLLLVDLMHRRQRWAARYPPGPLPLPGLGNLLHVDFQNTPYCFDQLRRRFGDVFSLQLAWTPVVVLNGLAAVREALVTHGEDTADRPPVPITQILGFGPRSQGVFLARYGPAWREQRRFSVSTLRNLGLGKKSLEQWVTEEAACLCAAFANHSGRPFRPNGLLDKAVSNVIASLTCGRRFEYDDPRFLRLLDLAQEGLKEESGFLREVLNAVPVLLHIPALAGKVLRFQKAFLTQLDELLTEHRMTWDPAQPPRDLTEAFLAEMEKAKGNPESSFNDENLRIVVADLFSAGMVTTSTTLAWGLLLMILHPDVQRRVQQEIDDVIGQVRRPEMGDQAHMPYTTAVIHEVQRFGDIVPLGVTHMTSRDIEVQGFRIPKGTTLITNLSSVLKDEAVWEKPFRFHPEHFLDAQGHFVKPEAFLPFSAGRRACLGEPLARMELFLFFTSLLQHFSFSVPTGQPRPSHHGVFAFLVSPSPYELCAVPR

Cytochrome P450 3A4 = Cytochrome P450 3A4 (Homo sapiens, UniProt P08684);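 also: CYP3A4 tested as one member of a cytochrome P450 panel screen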
Sequence of Cytochrome P450 3A4 (P08684 whole entry): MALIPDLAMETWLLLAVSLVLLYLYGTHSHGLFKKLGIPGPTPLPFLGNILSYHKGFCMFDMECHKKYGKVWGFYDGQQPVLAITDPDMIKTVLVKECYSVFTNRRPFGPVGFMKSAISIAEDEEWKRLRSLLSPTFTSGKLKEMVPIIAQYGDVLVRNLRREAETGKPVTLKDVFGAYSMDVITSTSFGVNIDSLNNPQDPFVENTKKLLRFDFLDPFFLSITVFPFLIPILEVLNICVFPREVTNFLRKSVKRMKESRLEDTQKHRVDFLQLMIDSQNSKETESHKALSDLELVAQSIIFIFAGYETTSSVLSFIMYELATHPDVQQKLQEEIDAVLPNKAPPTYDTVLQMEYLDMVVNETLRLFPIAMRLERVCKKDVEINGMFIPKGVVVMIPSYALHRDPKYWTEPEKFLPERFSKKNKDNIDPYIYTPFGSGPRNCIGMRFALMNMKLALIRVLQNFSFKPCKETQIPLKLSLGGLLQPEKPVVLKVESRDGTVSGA

[7] = molecular target: T4, Short transient receptor potential channel 4 (Mus musculus, UniProt Q9QUQ5); assay: mouse TRPC4 channel activators, dose response, cell-based, HEK293 TRPC4/mu-opioid, Fluo-4 calcium (AID 434937); assay type: functional
T4 sequence (Q9QUQ5 whole entry): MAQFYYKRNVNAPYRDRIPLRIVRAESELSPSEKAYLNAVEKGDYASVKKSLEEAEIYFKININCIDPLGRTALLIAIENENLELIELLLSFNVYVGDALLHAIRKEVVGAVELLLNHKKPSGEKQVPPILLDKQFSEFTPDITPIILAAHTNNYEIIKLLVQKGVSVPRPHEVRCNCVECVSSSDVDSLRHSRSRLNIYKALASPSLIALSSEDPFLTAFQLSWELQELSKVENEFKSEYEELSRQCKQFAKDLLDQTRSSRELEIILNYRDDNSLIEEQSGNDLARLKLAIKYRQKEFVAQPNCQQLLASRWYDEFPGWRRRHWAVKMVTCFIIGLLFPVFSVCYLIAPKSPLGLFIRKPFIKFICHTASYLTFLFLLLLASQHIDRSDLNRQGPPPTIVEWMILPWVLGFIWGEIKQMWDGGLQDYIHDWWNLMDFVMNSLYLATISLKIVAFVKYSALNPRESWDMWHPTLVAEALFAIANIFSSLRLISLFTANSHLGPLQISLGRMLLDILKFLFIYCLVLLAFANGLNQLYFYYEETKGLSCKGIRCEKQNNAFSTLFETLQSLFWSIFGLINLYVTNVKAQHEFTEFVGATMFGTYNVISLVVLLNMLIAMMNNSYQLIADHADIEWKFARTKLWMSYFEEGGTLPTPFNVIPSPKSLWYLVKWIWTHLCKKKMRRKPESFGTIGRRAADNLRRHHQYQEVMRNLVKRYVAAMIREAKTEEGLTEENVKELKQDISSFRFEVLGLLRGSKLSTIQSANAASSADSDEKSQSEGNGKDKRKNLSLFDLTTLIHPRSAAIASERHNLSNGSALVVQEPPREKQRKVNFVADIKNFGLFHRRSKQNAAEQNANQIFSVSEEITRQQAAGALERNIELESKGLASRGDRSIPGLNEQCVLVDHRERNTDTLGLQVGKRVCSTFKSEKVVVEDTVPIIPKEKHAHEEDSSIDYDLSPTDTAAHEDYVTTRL

[8] = molecular target: T5, Corticotropin-releasing factor receptor 2/Corticotropin-releasing factor-binding protein (Homo sapiens, UniProt P24387+Q13324); assay: activators of CRF receptor 2 with binding protein – uHTS hits, confirmation (AID 602473); assay type: functional; details: read-out: EC50_Mean
T5 sequence (Q13324 whole entry): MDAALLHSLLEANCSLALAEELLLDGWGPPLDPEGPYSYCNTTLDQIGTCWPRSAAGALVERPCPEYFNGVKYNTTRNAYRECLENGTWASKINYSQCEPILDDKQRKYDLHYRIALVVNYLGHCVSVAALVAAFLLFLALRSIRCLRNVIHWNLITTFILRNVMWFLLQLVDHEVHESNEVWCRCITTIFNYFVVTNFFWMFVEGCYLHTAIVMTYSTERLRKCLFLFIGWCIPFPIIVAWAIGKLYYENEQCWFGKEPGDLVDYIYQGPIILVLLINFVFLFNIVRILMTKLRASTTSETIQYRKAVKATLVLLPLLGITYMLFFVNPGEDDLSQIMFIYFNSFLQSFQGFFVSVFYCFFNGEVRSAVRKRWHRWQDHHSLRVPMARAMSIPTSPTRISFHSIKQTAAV
T5 sequence (P24387 whole entry): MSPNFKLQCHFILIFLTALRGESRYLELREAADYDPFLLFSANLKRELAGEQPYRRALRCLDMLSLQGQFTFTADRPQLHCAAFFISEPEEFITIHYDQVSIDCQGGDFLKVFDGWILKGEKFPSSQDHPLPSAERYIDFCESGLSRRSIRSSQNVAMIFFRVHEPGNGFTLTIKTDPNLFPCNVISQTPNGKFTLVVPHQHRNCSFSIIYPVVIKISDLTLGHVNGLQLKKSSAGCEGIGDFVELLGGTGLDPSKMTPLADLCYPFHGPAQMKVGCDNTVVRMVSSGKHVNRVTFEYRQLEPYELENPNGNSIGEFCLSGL

H9c2 = assay: cells; assay type: functional, cell-based; details: Rattus norvegicus, H9c2, Myocardium;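 also: confirmatory concentration-response retest of ultra-high-throughput screening hits for modulation of myocardial damage; cell death induced by hydrogen peroxide oxidative stress; compound pretreatment for 60 min then peroxide exposure for 2 h; potency is for protecting the cells against peroxide damage rather than for killing them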
[9] = off-target signal loss in HeLa-CEM21 co-culture – HeLa F-luc CTL cells, cherry-picked, counter-screen for HIV-1 Env fusion inhibitor project, dose response (AID 652040); assay type: functional, cell-based;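 also: potency for signal decrease marking cytotoxic or nonspecific inhibition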
[10] = A549 cell cytotoxicity, dose response, cytotoxicity control, plate reader, cherry-pick, antagonist series (AID 743412); assay type: functional, cell-based
[11] = HepG2 cell cytotoxicity, dose response, cytotoxicity control, plate reader, cherry-pick, antagonist series (AID 743416); assay type: functional, cell-based
[12] = LGR2 antagonists, dose response, cell-based, HEK293, CRE-luciferase reporter, cherry pick, set 2 (AID 743343); assay type: functional;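 also: transfected cells were stimulated with diluted bursicon conditioned medium after compound addition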
[13] = MC4R antagonists, dose response, counter-screen for LGR2 antagonist project, cell-based, plate reader, cherry pick (AID 743444); assay type: functional;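 also: transfected HEK 293 cells stimulated with alpha-MSH peptide; potency of inhibitors of the alpha-MSH evoked signal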

NC(=O)C1CCN(C(=O)c2cc3c(s2)CCCC3)CC1
IC50 (cells): > 67.6 µM (inactive) | IC50 [1]: > 67.6 µM (inactive)

CN(C)CCCNc1nc2cc(-c3cnn(Cc4ccccc4)c3)sc2c(=O)n1C
AC50 [2]: 19.8 µM (active)

C[C@@H]1CN([C@@H](C)CO)S(=O)(=O)c2ccc(-c3cccc(F)c3)cc2O[C@@H]1CN(C)S(=O)(=O)c1ccccc1
AC50 [3]: 0.597 µM (active) | AC50 [4]: 0.965 µM (active) | AC50 [5]: 6.62 µM (active)

CCc1cc(C(=O)NN=C(S)NCC2CCCO2)cs1 (centres undefined)
AC50 (Cytochrome P450 2C19): 7.94 µM (inconclusive) | AC50 (Cytochrome P450 1A2): 17.8 µM (inconclusive) | AC50 (Cytochrome P450 2C9): inconclusive

C(=N\Nc1ccc2ccccc2n1)/c1ccc2c(c1)OCO2
AC50 (HEK293): 2.42 µM (active) | IC50 (cells): > 67.6 µM (inactive) | IC50 [1]: > 0.278 µM (active)

C[C@H](CO)N1C[C@H](C)[C@@H](CN(C)Cc2ccc(Oc3ccccc3)cc2)Oc2c(NC(=O)c3ccc(-c4nccs4)cc3)cccc2C1=O
AC50 [6]: 3.08 µM (active)

CCOc1cccc(/C=C/c2ccc3ccccc3n2)c1OC(C)=O
IC50 (cells): > 67.5 µM (inactive) | IC50 [1]: > 67.5 µM (inactive)

C[C@@H]1CN([C@H](C)CO)C(=O)c2cccc(NC(=O)NC3CCCCC3)c2O[C@H]1CN(C)CC1CCCCC1
AC50 [6]: 2.5 µM (active)

Cc1cccc(NC(=O)CCSc2nc(C)cc(C)n2)c1
AC50 (Cytochrome P450 2D6): 22.4 µM (inconclusive) | AC50 (Cytochrome P450 3A4): 12.6 µM (inconclusive) | AC50 (Cytochrome P450 2C9): inconclusive

C[C@H]1CN([C@@H](C)CO)C(=O)Cc2cc(NC(=O)Nc3ccc(F)cc3)ccc2O[C@@H]1CN(C)Cc1ccc(C(F)(F)F)cc1
AC50 [6]: 4.21 µM (active)

COc1ccc(C(=O)CN2CCN(c3ccc(F)cc3)CC2)cc1OC
AC50 (Cytochrome P450 2D6): 25.1 µM (inconclusive) | AC50 (Cytochrome P450 2C9): inconclusive

CCOc1ccccc1N(CC(=O)N1CCOCC1)S(=O)(=O)c1ccc(SC)cc1
EC50 [7]: 2.66 µM (active) | EC50 [8]: 2.77 µM (active)

Cc1ccc(-c2nc3c(=O)n(C)c4ccccc4c3o2)cc1
AC50 (Cytochrome P450 2C19): 8.91 µM (inconclusive) | AC50 (Cytochrome P450 2C9): inconclusive

C[C@@H]1CN([C@H](C)CO)C(=O)c2cccc(NS(=O)(=O)c3ccccc3)c2O[C@@H]1CN(C)Cc1ccc(C(=O)Nc2ccccc2N)cc1
AC50 [6]: 3.53 µM (active)

CC(C)NC(=O)COC(=O)c1cc(O)nc2ccccc12
AC50 (Cytochrome P450 1A2): 7.08 µM (inconclusive) | AC50 (Cytochrome P450 2C9): inconclusive

COc1ccc(Cl)c2sc(N(CCN(C)C)C(=O)c3ccc4c(c3)OCCO4)nc12
AC50 [2]: 9.01 µM (active)

CCN(C[C@H]1N[C@@](C)(C(=O)OC)[C@H]2C(=O)N(Cc3ccccc3)C(=O)[C@@H]12)C(=O)c1ccc(C(C)(C)C)cc1
IC50 (H9c2): > 79 µM (inactive) | AC50 [3]: 5.34 µM (active) | AC50 [4]: 4.92 µM (active) | AC50 [9]: 10.2 µM (active) | AC50 [5]: 16.8 µM (active)

CS(=O)(=O)N1CCC2(CC1)CN(c1cccc(-c3ccccc3)c1)C2
AC50 (Cytochrome P450 2C9): inconclusive

CCOC(=O)c1c(CSc2cccs2)n(C)c2cc(Br)c(O)c(CN(C)C)c12
AC50 [3]: 1.62 µM (active) | AC50 [4]: 1.23 µM (active) | AC50 [9]: 2.08 µM (active) | AC50 [5]: 14.4 µM (active)

C[C@@H]1CCCCO[C@H](CN(C)C(=O)Nc2ccc(F)cc2)[C@@H](C)CN([C@H](C)CO)C(=O)c2cc(NC(=O)Nc3ccc(F)cc3)ccc2O1
AC50 [6]: 5.89 µM (active)

C[C@@H]1CN([C@@H](C)CO)C(=O)c2cccc(NC(=O)c3nc4ccccc4s3)c2O[C@@H]1CN(C)CC1CCCCC1
AC50 [6]: 7.6 µM (active)

COc1ccc2oc(C(=O)NCCc3ccccc3)c(C)c2c1
AC50 (HEK293): 2.48 µM (active) | IC50 (cells): > 67.5 µM (inactive) | IC50 [1]: > 67.5 µM (inactive) | AC50 [10]: 8.39 µM (active) | AC50 [11]: 12.7 µM (active) | AC50 [12]: 5.62 µM (active) | AC50 [13]: 8.65 µM (active)
